Measured values: patent US7507728B2, “Halogen substituted imidazol[1,5-A][1,2,4]triazolo[1,5-D][1,4]benzodiazepine derivatives” (priority 2004, dated 2009)
pKi: −log10 of the molar value. Where two headings read alike, the source gives them in different places.

Experiments:
[1] = molecular target: T1, GABA A receptor α1β3γ2 (hα1) (Homo sapiens, UniProt P14867+P18507); test: [3H]flumazenil competition binding, human GABA A α1β3γ2; conditions: for Ki: HEK293 cells transiently transfected, 1 nM [3H]flumazenil, mean of two determinations, read-out: Ki[nM] hα1
T1 construct: expressed in transfected cells; host or cells: HEK293, transiently transfected; membranes
Protocol: (§1) The affinity of compounds at GABA A receptor subtypes was measured by competition for [^3H]flumazenil (85 Ci/mmol; Roche) binding to HEK293 cells expressing rat (stably transfected) or human (transiently transfected) receptors of composition α1β3γ2, α2β3γ2, α3β3γ2 and α5β3γ2.
(§2) Cell pellets were suspended in Krebs-tris buffer (4.8 mM KCl, 1.2 mM CaCl2, 1.2 mM MgCl2, 120 mM NaCl, 15 mM Tris; pH 7.5; binding assay buffer), homogenized by polytron for ca. 20 sec on ice and centrifuged for 60 min at 4° C. (50000 g; Sorvall, rotor: SM24=20000 rpm). The cell pellets were resuspended in Krebs-tris buffer and homogenized by polytron for ca. 15 sec on ice. Protein was measured (Bradford method, Bio-Rad) and aliquots of 1 mL were prepared and stored at −80° C.
(§3) Radioligand binding assays were carried out in a volume of 200 μL (96-well plates) which contained 100 μL of cell memebranes, [^3H]flumazenil at a concentration of 1 nM for α1, α2, α3 subunits and 0.5 nM for α5 subunits and the test compound in the range of 10^−10−3×10^−6 M. Nonspecific binding was defined by 10^−5 M diazepam and typically represented less than 5% of the total binding. Assays were incubated to equilibrium for 1 hour at 4° C. and harvested onto GF/C uni-filters (Packard) by filtration using a Packard harvester and washing with ice-cold wash buffer (50 mM Tris; pH 7.5). After drying, filter-retained radioactivity was detected by liquid scintillation counting. Ki values were calculated using Excel-Fit (Microsoft) and are the means of two determinations.

[2] = molecular target: T2, GABA A receptor α5β3γ2 (hα5) (Homo sapiens, UniProt P18507+P31644); test: [3H]flumazenil competition binding, human GABA A α5β3γ2; conditions: for Ki: HEK293 cells transiently transfected, 0.5 nM [3H]flumazenil, mean of two determinations, read-out: Ki[nM] hα5
T2 construct: expressed in transfected cells; host or cells: HEK293, transiently transfected; membranes
Protocol: as §1, §2, §3

[3] = molecular target: T3, GABA A receptor α3β3γ2 (hα3) (Homo sapiens, UniProt P18507+P34903); test: [3H]flumazenil competition binding, human GABA A α3β3γ2; conditions: for Ki: HEK293 cells transiently transfected, 1 nM [3H]flumazenil, mean of two determinations, read-out: Ki[nM] hα3
T3 construct: expressed in transfected cells; host or cells: HEK293, transiently transfected; membranes
Protocol: as §1, §2, §3

[4] = molecular target: T4, GABA A receptor α2β3γ2 (hα2) (Homo sapiens, UniProt P18507+P47869); test: [3H]flumazenil competition binding, human GABA A α2β3γ2; conditions: for Ki: HEK293 cells transiently transfected, 1 nM [3H]flumazenil, mean of two determinations, read-out: Ki[nM] hα2
T4 construct: expressed in transfected cells; host or cells: HEK293, transiently transfected; membranes
Protocol: as §1, §2, §3

| Structure (SMILES) | Ki [1] [nM] | Ki [2] [nM] | pKi [3] | pKi [4] | Ki [3] [nM] | Ki [4] [nM] | pKi [1] | pKi [2] |
| --- | --- | --- | --- | --- | --- | --- | --- | --- |
| FCCOc1ccc2c(c1)-c1ncnn1Cc1c(Cl)ncn1-2 [Example 7, 10-Chloro-3-(2-fluoro-ethoxy)-9H-imidazo[1,5-a][1,2,4]triazolo[1,5-d][1,4]benzodiazepine] | 18.5 | 1.3 | 7.68 | 7.60 |  |  |  |  |
| Fc1ccc2c(c1)-c1ncnn1Cc1c(Br)ncn1-2 [Example 47, 10-Bromo-3-fluoro-9H-imidazo[1,5-a][1,2,4]triazolo[1,5-d][1,4]benzodiazepine] | 2.1 | 0.5 | 8.41 | 8.43 |  |  |  |  |
| CCCc1ccc2c(c1)-c1ncnn1Cc1c(Cl)ncn1-2 [Example 64, 10-Chloro-3-propyl-9H-imidazo[1,5-a][1,2,4]triazolo[1,5-d][1,4]benzodiazepine] | 58.8 | 7 |  |  | 187 | 136 |  |  |
| CNc1ccc2c(c1)-c1ncnn1Cc1c(Cl)ncn1-2 [Example 12, 10-Chloro-3-methylamino-9H-imidazo[1,5-a][1,2,4]triazolo[1,5-d][1,4]benzodiazepine] | 5.9 | 1.8 | 8.10 | 7.80 |  |  |  |  |
| C=Cc1ccc2c(c1)-c1ncnn1Cc1c(Cl)ncn1-2 [Example 66, 10-Chloro-3-vinyl-9H-imidazo[1,5-a][1,2,4]triazolo[1,5-d][1,4]benzodiazepine] | 20.6 | 1.4 |  |  | 16.8 | 17.5 |  |  |
| Brc1ncn2c1Cn1ncnc1-c1ccccc1-2 [Example 46, 10-Bromo-9H-imidazo[1,5-a][1,2,4]triazolo[1,5-d][1,4]benzodiazepine] | 2.4 | 0.2 | 9.22 | 9.10 |  |  |  |  |
| Clc1ccc2c(c1)-c1ncnn1Cc1c(I)ncn1-2 [Example 48, 3-Chloro-10-iodo-9H-imidazo[1,5-a][1,2,4]triazolo[1,5-d][1,4]benzodiazepine] | 9.2 | 1.4 | 7.95 | 7.83 |  |  |  |  |
| C=C=Cc1ccc2c(c1)-c1ncnn1Cc1c(Cl)ncn1-2 [Example 70, 10-Chloro-3-(propa-1,2-dienyl)-9H-imidazo[1,5-a][1,2,4]triazolo[1,5-d][1,4]benzodiazepine] | 26.9 | 3.2 | 7.51 | 7.52 |  |  |  |  |
| FC(F)COc1ccc2c(c1)-c1ncnn1Cc1c(Cl)ncn1-2 [Example 8, 10-Chloro-3-(2,2-difluoro-ethoxy)-9H-imidazo[1,5-a][1,2,4]triazolo[1,5-d][1,4]benzodiazepine] | 22.1 | 2 | 7.61 | 7.53 |  |  |  |  |
| Clc1ncn2c1Cn1ncnc1-c1cc(NC3CC3)ccc1-2 [Example 72, 10-chloro-3-cyclopropylamino-9H-imidazo[1,5-a][1,2,4]triazolo[1,5-d][1,4]benzodiazepine] | 21 | 2.2 | 7.10 | 7.03 |  |  |  |  |
| COC(=O)c1ccc2c(c1)-c1ncnn1Cc1c(Cl)ncn1-2 [Example 69, 10-Chloro-3-(methoxy-carbonyl)-9H-imidazo[1,5-a][1,2,4]triazolo[1,5-d][1,4]benzodiazepine] | 7.5 | 1 | 8.12 | 7.94 |  |  |  |  |
| C=COc1ccc2c(c1)-c1ncnn1Cc1c(Cl)ncn1-2 [Example 10, 10-Chloro-3-vinyloxy-9H-imidazo[1,5-a][1,2,4]triazolo[1,5-d][1,4]benzodiazepine] | 22.4 | 1.2 | 7.94 | 7.59 |  |  |  |  |
| Cc1ccc2c(c1)-c1ncnn1Cc1c(Cl)ncn1-2 [Example 22, 10-Chloro-3-methyl-9H-imidazo[1,5-a][1,2,4]triazolo[1,5-d][1,4]benzodiazepine] | 19.6 | 1.8 | 7.67 | 7.39 |  |  |  |  |
| COc1ccc2c(c1)-c1ncnn1Cc1c(Cl)ncn1-2 [Example 3, 10-Chloro-3-methoxy-9H-imidazo[1,5-a][1,2,4]triazolo[1,5-d][1,4]benzodiazepine] | 12.2 | 0.8 | 7.93 | 7.76 |  |  |  |  |
| Clc1ncn2c1Cn1ncnc1-c1cc(-c3cccnc3)ccc1-2 [Example 57, 10-Chloro-3-(pyridin-3-yl)-9H-imidazo[1,5-a][1,2,4]triazolo[1,5-d][1,4]benzodiazepine] | 9.4 | 6.7 | 7.66 | 7.47 |  |  |  |  |
| O=C(Nc1ccc2c(c1)-c1ncnn1Cc1c(Cl)ncn1-2)C1CC1 [Example 50, 3-(Cyclopropanecarbonyl-amino)-10-chloro-9H-imidazo[1,5-a][1,2,4]triazolo[1,5-d][1,4]benzodiazepine] |  | 15.8 |  |  |  |  |  |  |
| Fc1ccc2c(c1)-c1ncnn1Cc1c(Cl)ncn1-2 [Example 2, 10-Chloro-3-fluoro-9H-imidazo[1,5-a][1,2,4]triazolo[1,5-d][1,4]benzodiazepine] | 0.7 | 0.3 | 9.11 | 8.92 |  |  |  |  |
| FC(F)c1ccc2c(c1)-c1ncnn1Cc1c(Cl)ncn1-2 [Example 32, 10-Chloro-3-difluoromethyl-9H-imidazo[1,5-a][1,2,4]triazolo[1,5-d][1,4]benzodiazepine] | 20.5 | 1.1 | 7.80 | 7.40 |  |  |  |  |
| Clc1ncn2c1Cn1ncnc1-c1cc(C3CC3)ccc1-2 [Example 30, 10-Chloro-3-cyclopropyl-9H-imidazo[1,5-a][1,2,4]triazolo[1,5-d][1,4]benzodiazepine] | 28.7 | 1.2 | 7.69 | 7.73 |  |  |  |  |
| CCCCc1ccc2c(c1)-c1ncnn1Cc1c(Cl)ncn1-2 [Example 65, 3-Butyl-10-chloro-9H-imidazo[1,5-a][1,2,4]triazolo[1,5-d][1,4]benzodiazepine] |  |  |  |  | 115 | 106 | 7.41 | 8.02 |
| Clc1ncn2c1Cn1ncnc1-c1cc(Br)ccc1-2 [Example 21, 3-Bromo-10-chloro-9H-imidazo[1,5-a][1,2,4]triazolo[1,5-d][1,4]benzodiazepine] | 33 | 1.4 |  |  | 8.8 | 24.1 |  |  |
| Clc1ncn2c1Cn1ncnc1-c1ccccc1-2 [Example 1, 10-Chloro-9H-imidazo[1,5-a][1,2,4]triazolo[1,5-d][1,4]benzodiazepine] | 3.8 | 0.3 | 9.15 | 8.82 |  |  |  |  |
